Source: patent publication US20230406885A1, “CYCLIC PEPTIDES FOR TRAPPING INTERLEUKIN-1 BETA” (MERCK SHARP & DOHME LLC, priority 2022, published 2023)
*1 amine or outer side, *2 acyl side, *3 side chain or, on linkers, in order; H or OH if unused. Where a SMILES comes first, the peptide text is derived from it. [ ]: non-standard residue; d: D form. Phe(4-(4-Ac-piperazinyl)) = CC(=O)N1CCN(c2ccc(C[C@H](N)C(=O)O)cc2)CC1; Trp(4-Cl)(βS-Me) = C[C@@H](c1c[nH]c2cccc(Cl)c12)[C@H](N)C(=O)O; Bip(4'-COOH) = N[C@@H](Cc1ccc(-c2ccc(C(=O)O)cc2)cc1)C(=O)O; X3 = CC(=O)N1CCN(c2ncc(C[C@H](N[*:1])C(=O)[*:2])cn2)CC1; 1Nal(3S-Me) = C[C@@H](c1cccc2ccccc12)[C@H](N)C(=O)O; X5 = O=C([C@@H]1C[C@@H](NCCc2ccccc2)CN1[*:1])[*:2]; Ala(indazol-1-yl) = N[C@@H](Cn1ncc2ccccc21)C(=O)O; Ala(indolin-1-yl) = N[C@@H](CN1CCc2ccccc21)C(=O)O; Phe(4-COOH) = N[C@@H](Cc1ccc(C(=O)O)cc1)C(=O)O; X4 = CCN[C@@H]1C[C@@H](C(=O)[*:2])N([*:1])C1; h3Pal(5-CN) = N#Cc1cncc(CC[C@H](N)C(=O)O)c1; Pro(4R-NH2) = N[C@H]1CN[C@H](C(=O)O)C1; 1Nal = N[C@@H](Cc1cccc2ccccc12)C(=O)O; AEF = NCCOc1ccc(C[C@H](N)C(=O)O)cc1; hTyr = N[C@@H](CCc1ccc(O)cc1)C(=O)O; dDab = NCC[C@@H](N)C(=O)O; Orn = NCCC[C@H](N)C(=O)O; dNMeA = CN[C@H](C)C(=O)O; Dab = NCC[C@H](N)C(=O)O; Nva = CCC[C@H](N)C(=O)O; Dap = NC[C@H](N)C(=O)O; Aib = CC(C)(N)C(=O)O

Each compound was assayed against T1, Recombinant human IL-1β (Homo sapiens, UniProt P01584) (assay: IL-6 assay in MRC5 cells: inhibition of IL-1β induced IL-6 secretion (AlphaLISA)). Conditions: inhibition of IL-1β induced IL-6 secretion in MRC5 cells; IL-1β pre-incubated 1 hour with compound; read-out: MRC5 IC50.
T1 construct: purchased BioLegend 579404
Format: cell-based
Outline: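 IL-1β at 2×EC80 in seeding medium (EMEM, 0.025% BSA) preincubated 1 h at ambient temperature with compound, then 3000 MRC5 cells/well added and incubated overnight at 37 °C, 5% CO2. IL-6 in conditioned medium quantified by AlphaLISA; IC50 from 4-parameter logistic fit.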

T1 sequence (P01584 117-269): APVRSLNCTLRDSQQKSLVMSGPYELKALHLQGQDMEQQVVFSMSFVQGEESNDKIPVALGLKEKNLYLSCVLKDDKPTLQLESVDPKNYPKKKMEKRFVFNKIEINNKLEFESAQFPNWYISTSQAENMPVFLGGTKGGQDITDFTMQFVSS

Row | Compound | IC50 [nM]
1 | C[C@@H]1C(=O)NCC(=O)N[C@@H](Cc2ccc(-c3ccc(C(=O)O)cc3)cc2)C(=O)N[C@@H](Cc2c[nH]c3ccccc23)C(=O)N[C@@H](CN)C(=O)N[C@H](C)C(=O)N[C@@H](CCc2ccc(O)cc2)C(=O)N[C@@H](Cc2ccc(-c3ccc(C(=O)O)cc3)cc2)C(=O)N[C@@H](Cc2c[nH]c3ccccc23)C(=O)N[C@@H](Cc2ccc(C(=O)O)cc2)C(=O)NCC(=O)N2C[C@H](NCCc3ccccc3)C[C@H]2C(=O)N[C@@H]([C@@H](C)c2cccc3ccccc23)C(=O)N[C@@H](CC(=O)O)C(=O)N1C [Example 83] (cyclo([Bip(4'-COOH)]W[Phe(4-COOH)]G[X5][1Nal(3S-Me)]D[dNMeA]G[Bip(4'-COOH)]W[Dap][dA][hTyr])) | 0.0329
2 | CCN[C@@H]1C[C@H]2C(=O)N[C@@H]([C@@H](C)c3cccc4ccccc34)C(=O)N[C@@H](CC(=O)O)C(=O)N(C)[C@H](C)C(=O)NCC(=O)N[C@@H](Cc3ccc(-c4ccc(C(=O)O)cc4)cc3)C(=O)N[C@@H](Cc3c[nH]c4ccccc34)C(=O)N[C@@H](CN)C(=O)N[C@H](C)C(=O)N[C@@H](CCc3ccc(O)cc3)C(=O)N[C@@H](Cc3ccc(-c4ccc(C(=O)O)cc4)cc3)C(=O)N[C@@H](Cc3c[nH]c4ccccc34)C(=O)N[C@@H](Cc3ccc(C(=O)O)cc3)C(=O)NCC(=O)N2C1 [Example 84] (cyclo([Bip(4'-COOH)]W[Phe(4-COOH)]G[X4][1Nal(3S-Me)]D[dNMeA]G[Bip(4'-COOH)]W[Dap][dA][hTyr])) | 0.0258
3 | CC(=O)N1CCN(c2ccc(C[C@@H]3NC(=O)[C@H](CCc4ccc(O)cc4)NC(=O)[C@@H](CCN)NC(=O)CNC(=O)[C@H](Cc4c[nH]c5ccccc45)NC(=O)[C@H](Cc4ccc(-c5ccc(C(=O)O)cc5)cc4)NC(=O)CNC(=O)[C@@H](C)N(C)C(=O)[C@H](CC(=O)O)NC(=O)[C@H]([C@@H](C)c4c[nH]c5cccc(Cl)c45)NC(=O)[C@@H]4C[C@@H](N)CN4C(=O)CNC(=O)[C@H](Cc4ccc(C(=O)O)cc4)NC(=O)[C@H](Cc4c[nH]c5ccccc45)NC3=O)cc2)CC1 [Example 85] (cyclo([Phe(4-(4-Ac-piperazinyl))]W[Phe(4-COOH)]G[Pro(4R-NH2)][Trp(4-Cl)(βS-Me)]D[dNMeA]G[Bip(4'-COOH)]WG[dDab][hTyr])) | 0.0543
4 | CC(=O)N1CCN(c2ncc(C[C@@H]3NC(=O)[C@H](CCc4ccc(O)cc4)NC(=O)[C@@H](C)NC(=O)[C@H](CN)NC(=O)[C@H](Cc4c[nH]c5ccccc45)NC(=O)[C@H](Cc4ccc(-c5ccc(C(=O)O)cc5)cc4)NC(=O)CNC(=O)[C@@H](C)N(C)C(=O)[C@H](CC(=O)O)NC(=O)[C@H]([C@@H](C)c4cccc5ccccc45)NC(=O)[C@@H]4C[C@@H](N)CN4C(=O)CNC(=O)[C@H](Cc4ccc(C(=O)O)cc4)NC(=O)[C@H](Cc4c[nH]c5ccccc45)NC3=O)cn2)CC1 [Example 88] (cyclo([X3]W[Phe(4-COOH)]G[Pro(4R-NH2)][1Nal(3S-Me)]D[dNMeA]G[Bip(4'-COOH)]W[Dap][dA][hTyr])) | 0.0945
5 | CC(=O)NCCOc1ccc(C[C@@H]2NC(=O)[C@H](CCc3ccc(O)cc3)NC(=O)[C@@H](C)NC(=O)[C@H](CN)NC(=O)[C@H](Cc3c[nH]c4ccccc34)NC(=O)[C@H](Cc3ccc(-c4ccc(C(=O)O)cc4)cc3)NC(=O)CNC(=O)[C@@H](C)N(C)C(=O)[C@H](C)NC(=O)[C@H]([C@@H](C)c3cccc4ccccc34)NC(=O)[C@@H]3C[C@@H](N)CN3C(=O)CNC(=O)[C@H](Cc3ccc(C(=O)O)cc3)NC(=O)[C@H](Cc3c[nH]c4ccccc34)NC2=O)cc1 [Example 89] (cyclo([AEF](Ac)W[Phe(4-COOH)]G[Pro(4R-NH2)][1Nal(3S-Me)]A[dNMeA]G[Bip(4'-COOH)]W[Dap][dA][hTyr])) | 0.271
6 | CC(=O)NCCOc1ccc(C[C@@H]2NC(=O)[C@H](CCc3cncc(C#N)c3)NC(=O)[C@@H](CCN)NC(=O)CNC(=O)[C@H](Cn3ncc4ccccc43)NC(=O)[C@H](Cc3ccc(-c4ccc(C(=O)O)cc4)cc3)NC(=O)CNC(=O)[C@@H](C)N(C)C(=O)[C@H](CC(=O)O)NC(=O)[C@H]([C@@H](C)c3cccc4ccccc34)NC(=O)[C@@H]3C[C@@H](N)CN3C(=O)CNC(=O)[C@H](Cc3ccc(C(=O)O)cc3)NC(=O)[C@H](Cc3c[nH]c4ccccc34)NC2=O)cc1 [Example 90] (cyclo([AEF](Ac)W[Phe(4-COOH)]G[Pro(4R-NH2)][1Nal(3S-Me)]D[dNMeA]G[Bip(4'-COOH)][Ala(indazol-1-yl)]G[dDab][h3Pal(5-CN)])) | 0.0507
7 | CC(=O)NCCOc1ccc(C[C@@H]2NC(=O)[C@H](CCc3cncc(C#N)c3)NC(=O)[C@@H](CCN)NC(=O)CNC(=O)[C@H](CN3CCc4ccccc43)NC(=O)[C@H](Cc3ccc(-c4ccc(C(=O)O)cc4)cc3)NC(=O)CNC(=O)[C@@H](C)N(C)C(=O)[C@H](CC(=O)O)NC(=O)[C@H]([C@@H](C)c3cccc4ccccc34)NC(=O)[C@@H]3C[C@@H](N)CN3C(=O)CNC(=O)[C@H](Cc3ccc(C(=O)O)cc3)NC(=O)[C@H](Cc3c[nH]c4ccccc34)NC2=O)cc1 [Example 91] (cyclo([AEF](Ac)W[Phe(4-COOH)]G[Pro(4R-NH2)][1Nal(3S-Me)]D[dNMeA]G[Bip(4'-COOH)][Ala(indolin-1-yl)]G[dDab][h3Pal(5-CN)])) | 0.0234
8 | CC(=O)NCCOc1ccc(C[C@@H]2NC(=O)CNC(=O)C(C)(C)NC(=O)[C@H](CCN)NC(=O)[C@H](Cc3cccc4ccccc34)NC(=O)[C@H](Cc3ccc(-c4ccc(C(=O)O)cc4)cc3)NC(=O)CNC(=O)[C@@H](C)N(C)C(=O)[C@H](CC(=O)O)NC(=O)[C@H]([C@@H](C)c3cccc4ccccc34)NC(=O)[C@@H]3C[C@@H](N)CN3C(=O)CNC(=O)[C@H](Cc3ccc(C(=O)O)cc3)NC(=O)[C@H](Cc3c[nH]c4ccccc34)NC2=O)cc1 [Example 92] (cyclo([AEF](Ac)W[Phe(4-COOH)]G[Pro(4R-NH2)][1Nal(3S-Me)]D[dNMeA]G[Bip(4'-COOH)][1Nal][Dab][Aib]G)) | 0.457

Now from value to compound:

Row | IC50 [nM] | Compound
9 | 0.12 | CC(=O)NCCOc1ccc(C[C@@H]2NC(=O)[C@H](CCc3ccc(O)cc3)NC(=O)C(C)(C)NC(=O)[C@H](CCN)NC(=O)[C@H](Cc3cccc4ccccc34)NC(=O)[C@H](Cc3ccc(-c4ccc(C(=O)O)cc4)cc3)NC(=O)CNC(=O)[C@@H](C)N(C)C(=O)[C@H](CC(=O)O)NC(=O)[C@H]([C@@H](C)c3cccc4ccccc34)NC(=O)[C@@H]3C[C@@H](N)CN3C(=O)CNC(=O)[C@H](Cc3ccc(C(=O)O)cc3)NC(=O)[C@H](Cc3c[nH]c4ccccc34)NC2=O)cc1 [Example 93] (cyclo([AEF](Ac)W[Phe(4-COOH)]G[Pro(4R-NH2)][1Nal(3S-Me)]D[dNMeA]G[Bip(4'-COOH)][1Nal][Dab][Aib][hTyr]))
10 | 0.0639 | CC(=O)NCCOc1ccc(C[C@@H]2NC(=O)[C@H](CCc3cncc(C#N)c3)NC(=O)C(C)(C)NC(=O)[C@H](CN)NC(=O)[C@H](Cc3cccc4ccccc34)NC(=O)[C@H](Cc3ccc(-c4ccc(C(=O)O)cc4)cc3)NC(=O)CNC(=O)[C@@H](C)N(C)C(=O)[C@H](CC(=O)O)NC(=O)[C@H]([C@@H](C)c3cccc4ccccc34)NC(=O)[C@@H]3C[C@@H](N)CN3C(=O)CNC(=O)[C@H](Cc3ccc(C(=O)O)cc3)NC(=O)[C@H](Cc3c[nH]c4ccccc34)NC2=O)cc1 [Example 94] (cyclo([AEF](Ac)W[Phe(4-COOH)]G[Pro(4R-NH2)][1Nal(3S-Me)]D[dNMeA]G[Bip(4'-COOH)][1Nal][Dap][Aib][h3Pal(5-CN)]))
11 | 0.422 | CC(=O)NCCOc1ccc(C[C@@H]2NC(=O)CNC(=O)C(C)(C)NC(=O)[C@H](CC(C)C)NC(=O)[C@H](Cc3cccc4ccccc34)NC(=O)[C@H](Cc3ccc(-c4ccc(C(=O)O)cc4)cc3)NC(=O)CNC(=O)[C@@H](C)N(C)C(=O)[C@H](CC(=O)O)NC(=O)[C@H]([C@@H](C)c3cccc4ccccc34)NC(=O)[C@@H]3C[C@@H](N)CN3C(=O)CNC(=O)[C@H](Cc3ccc(C(=O)O)cc3)NC(=O)[C@H](Cc3c[nH]c4ccccc34)NC2=O)cc1 [Example 95] (cyclo([AEF](Ac)W[Phe(4-COOH)]G[Pro(4R-NH2)][1Nal(3S-Me)]D[dNMeA]G[Bip(4'-COOH)][1Nal]L[Aib]G))
12 | 0.295 | CC(=O)NCCOc1ccc(C[C@@H]2NC(=O)[C@H](C)NC(=O)[C@@H](C)NC(=O)[C@H](CC(C)C)NC(=O)[C@H](Cc3cccc4ccccc34)NC(=O)[C@H](Cc3ccc(-c4ccc(C(=O)O)cc4)cc3)NC(=O)CNC(=O)[C@@H](C)N(C)C(=O)[C@H](CC(=O)O)NC(=O)[C@H]([C@@H](C)c3cccc4ccccc34)NC(=O)[C@@H]3C[C@@H](N)CN3C(=O)CNC(=O)[C@H](Cc3ccc(C(=O)O)cc3)NC(=O)[C@H](Cc3c[nH]c4ccccc34)NC2=O)cc1 [Example 97] (cyclo([AEF](Ac)W[Phe(4-COOH)]G[Pro(4R-NH2)][1Nal(3S-Me)]D[dNMeA]G[Bip(4'-COOH)][1Nal]L[dA]A))
13 | 0.494 | CCC[C@@H]1NC(=O)[C@H](Cc2cccc3ccccc23)NC(=O)[C@H](Cc2ccc(-c3ccc(C(=O)O)cc3)cc2)NC(=O)CNC(=O)[C@@H](C)N(C)C(=O)[C@H](CC(=O)O)NC(=O)[C@H]([C@@H](C)c2cccc3ccccc23)NC(=O)[C@@H]2C[C@@H](N)CN2C(=O)CNC(=O)[C@H](Cc2ccc(C(=O)O)cc2)NC(=O)[C@H](Cc2c[nH]c3ccccc23)NC(=O)[C@H](Cc2ccc(OCCNC(C)=O)cc2)NC(=O)[C@H](C)NC(=O)[C@@H](C)NC1=O [Example 98] (cyclo([AEF](Ac)W[Phe(4-COOH)]G[Pro(4R-NH2)][1Nal(3S-Me)]D[dNMeA]G[Bip(4'-COOH)][1Nal][Nva][dA]A))
14 | 0.256 | CC(=O)NCCOc1ccc(C[C@@H]2NC(=O)[C@H](CCc3ccc(O)cc3)NC(=O)C(C)(C)NC(=O)[C@H](CCCN)NC(=O)[C@H](Cc3cccc4ccccc34)NC(=O)[C@H](Cc3ccc(-c4ccc(C(=O)O)cc4)cc3)NC(=O)CNC(=O)[C@@H](C)N(C)C(=O)[C@H](CC(=O)O)NC(=O)[C@H]([C@@H](C)c3cccc4ccccc34)NC(=O)[C@@H]3C[C@@H](N)CN3C(=O)CNC(=O)[C@H](Cc3ccc(C(=O)O)cc3)NC(=O)[C@H](Cc3c[nH]c4ccccc34)NC2=O)cc1 [Example 99] (cyclo([AEF](Ac)W[Phe(4-COOH)]G[Pro(4R-NH2)][1Nal(3S-Me)]D[dNMeA]G[Bip(4'-COOH)][1Nal][Orn][Aib][hTyr]))
